Measurements as given in ChEMBL document CHEMBL4665895, “Covalent Bridging of Corilagin Improves Antiferroptosis Activity: Comparison with 1,3,6-Tri-O-galloyl-β-d-glucopyranose” (ACS Med Chem Lett, 2020).
Active and inactive are the calls of the source. The calls are words filed in the database; no cut-off is given here.

Experiments:
Bone marrow cell [1] = experiment: Anti-ferroptosis activity against erastin-induced ferroptosis in Sprague-Dawley rat bmMSC cells assessed as increase in cell viability at 0.47 to 4.7 uM preincubated for 12 hrs followed by compound addition and measured after 12 hrs by CCK8 assay; type: functional, cell-based; settings: dose microM 0.47-4.7, time 12.0 hrs
[2] = Metal chelating activity assessed as Fe2+-compound complex formation incubated for 5 mins by colorimetry
[3] = Antioxidant activity assessed as compound-DPPH adduct formation with covalent bridging by UHPLC-ESI-Q-TOF-MS analysis; type: functional
[4] = Anti-ferroptosis activity against erastin-induced ferroptosis in Sprague-Dawley rat bmMSC cells assessed as early cell death at 4.7 uM after 1 hr by AnnexinV-FITC/propidium iodide staining-based flow cytometric analysis (reference value: 10.4%); type: functional, Bone marrow cell
[5] = Anti-ferroptosis activity against erastin-induced ferroptosis in Sprague-Dawley rat bmMSC cells assessed as late cell death at 4.7 uM after 1 hr by AnnexinV-FITC/propidium iodide staining-based flow cytometric analysis (reference value: 19.9%); type: functional, Bone marrow cell
Bone marrow cell [6] = experiment: Anti-ferroptosis activity against erastin-induced ferroptosis in Sprague-Dawley rat bmMSC cells assessed as inhibition of lipid peroxidation at 3 ug/ml preincubated for 12 hrs followed by compound addition and measured after 12 hrs by C11-Bodipy fluorescent dye based microscopic analysis; type: functional; settings: dose 3.0 µg/ml
[7] = Antioxidant activity assessed as DPPH free radical scavenging activity after 5 mins by microplate reader based assay; type: functional
[8] = Anti-ferroptosis activity against erastin-induced ferroptosis in Spargue-Dawley rat bmMSCs cells assessed as cell viability at 4.7 uM after 1 hr by AnnexinV-FITC/propidium iodide staining based flow cytometry analysis (reference value: 65.9%); type: functional; settings: Bone marrow cell, read-out: Activity
[9] = Antioxidant activity assessed as ferric ion reducing activity using FeCl3.H2O and TPTZ incubated for 30 mins by FRAP assay; type: functional
[10] = Potency index, ratio of trolox IC50 to test compound IC50 for antioxidant activity assessed as DPPH radical scavenging activity; type: functional
[11] = Antioxidant activity in pH 4.5 phosphate buffer assessed as PTIO radical scavenging activity after 1 hr by microplate reader based assay; type: functional
[12] = Antioxidant activity in pH 7.4 phosphate buffer assessed as PTIO radical scavenging activity after 1 hr by microplate reader based assay; type: functional
[13] = Anti-ferroptosis activity against erastin-induced ferroptosis in Sprague-Dawley rat bmMSC cells assessed as cellular death at 4.7 uM after 1 hr by AnnexinV-FITC/propidium iodide staining-based flow cytometric analysis (reference value: 3.73%); type: functional, Bone marrow cell
[14] = Metal chelating activity assessed as Fe2+-compound complex formation by measuring red shift by UV-visible spectrophotometry

Compound | Activity (Bone marrow cell [1]) | IC50 [2] [µM] | inhibition [2] | Activity [3] | Activity [4] [%] | Activity [5] [%] | Activity (Bone marrow cell [6]) | IC50 [7] [µM] | inhibition [7] | viability at 4.7 µM [8] [%] | IC50 [9] [µM] | inhibition [9] | Ratio IC50 [10] | IC50 [11] [µM] | inhibition [11] | IC50 [12] [µM] | inhibition [12] | Activity [13] [%] | Activity [14]
O=C(OC[C@H]1O[C@@H](OC(=O)c2cc(O)c(O)c(O)c2)[C@H](O)[C@@H](OC(=O)c2cc(O)c(O)c(O)c2)[C@@H]1O)c1cc(O)c(O)c(O)c1 | Active | 11 | Dose-dependent effect | Active | 10.3 | 9 | Active | 1 | Dose-dependent effect | 78.4 | 35 | Dose-dependent effect | 6.5 | 290 | Dose-dependent effect | 115 | Dose-dependent effect | 2.2 | Active
Cc1c(C)c2c(c(C)c1O)CCC(C)(C(=O)O)O2 (racemic) [TROLOX] | – | – | – | – | – | – | – | 7 | – | – | 81 | – | – | 289 | – | 445 | – | – | –
O=C(O[C@@H]1O[C@@H]2COC(=O)c3cc(O)c(O)c(O)c3-c3c(cc(O)c(O)c3O)C(=O)O[C@H]([C@H]1O)[C@@H]2O)c1cc(O)c(O)c(O)c1 [CORILAGIN] | Active | 7 | Dose-dependent effect | Active | 9.2 | 7.8 | Active | 1 | Dose-dependent effect | 80.2 | 12 | Dose-dependent effect | 8 | 204 | Dose-dependent effect | 94 | Dose-dependent effect | 2.7 | Active
O=C([O-])CC(O)(CC(=O)[O-])C(=O)[O-].[Na+].[Na+].[Na+] [SODIUM CITRATE] | – | 14 | – | – | – | – | – | – | – | – | – | – | – | – | – | – | – | – | –
